Test results published in article PMC7037636, “Synthesis of New Series of 2-C-(β-D-glucopyranosyl)-Pyrimidines and Their Evaluation as Inhibitors of Some Glycoenzymes” (Molecules, 2020).

Biological target: T1, bovine liver β-galactosidase
T1 construct: gene GLB1; commercial native enzyme from bovine liver (Sigma-Aldrich)
Assay: PNP-β-Gal hydrolysis, absorbance at […] nm
Assay type: biochemical, Bos taurus
Settings: 1 mM PNP-β-Gal, citrate-phosphate buffer pH 7.3, 37 °C, 0.12 mg/mL enzyme; read-out: Inh.

CCOC(=O)c1c(-c2ccccc2)nc([C@@H]2O[C@H](CO)[C@@H](O)[C@H](O)[C@H]2O)[nH]c1=O [11h, Ethyl 2-(β-D-glucopyranosyl)-4-phenyl-6-oxo-1,6-dihydropyrimidine-5-carboxylate]
IC50: 294 ± 50 µM
